Experimental data published in PubChem BioAssay AID184 (DTP/NCI, 2004).
Where “and” joins values, the source holds several entries; their conditions need not be identical. Identical values can stand only once. Inconclusive results and toxic doses are left out. Starred links: 1 amine or outer side, 2 acyl side, 3 side chain; linkers in the order of their positions; H or OH if unused. Positions of bridges follow the written chain, without caps; N, C: chain ends. Non-standard residues stand in square brackets, D forms with d. Residues, ends and D or L forms follow the SMILES beside them. Chains are numbered I, II in the order given. Actinocin(9to1) = Cc1c2oc3c(C)ccc(C(=O)[*:1])c3nc-2c(C(=O)[*:2])c(N)c1=O; aThr = C[C@H](O)[C@H](N)C(=O)O; NMeV = CN[C@H](C(=O)O)C(C)C; Sar = CNCC(=O)O

System: BALB/cJ mice, ADJ-PC-6 ip tumor, median survival T/C
Assay: NCI In Vivo Anticancer Drug Screen. Data for tumor model ADJ-PC-6 (intraperitoneal) in BALB/cJ mice
Conditions: endpoint: median survival time, higher = longer survival
Method: The antitumor activity of compounds was measured in mice bearing transplantable tumors. Survival or tumor size were measured and the results are expressed as the measurement made in the treated group (T) divided by the measurement made in the vehicle treated control group (C). The tumor model used in this assay is ADJ-PC-6 (intraperitoneal) in BALB/cJ mice

[1] = dose: 2.0 mg/kg/injection, schedule: Q04DX003 (ip), vehicle: saline

How did the T/C (dose: 2.5 mg/kg/injection, schedule: Q01DX009 (ip), vehicle: saline) turn out when `CC1(C)N=C(N)N=C(N)N1c1ccc(CCCCc2ccc(S(=O)(=O)F)cc2Cl)c(Cl)c1` was run?
The T/C was 88 % of control.

What about the T/C (dose: 5.0 mg/kg/injection, schedule: Q01DX009 (ip), vehicle: saline) of the same compound?
Its T/C is 101 % of control.

And the T/C (dose: 10.0 mg/kg/injection, schedule: Q01DX009 (ip), vehicle: saline)?
The T/C was 106 % of control.

And the T/C (dose: 12.5 mg/kg/injection, schedule: Q04DX003 (ip), vehicle: Klucel (hydroxypropylcellulose) (HPC))?
The T/C was 96 % of control.

What about the T/C (dose: 20.0 mg/kg/injection, schedule: Q01DX009 (ip), vehicle: saline) of the same compound?
Its T/C is 119 % of control.

And the T/C (dose: 25.0 mg/kg/injection, schedule: Q04DX003 (ip), vehicle: Klucel (hydroxypropylcellulose) (HPC))?
Its T/C is 91 % of control.

And the T/C (dose: 50.0 mg/kg/injection, schedule: Q04DX003 (ip), vehicle: Klucel (hydroxypropylcellulose) (HPC))?
Its T/C is 92 % of control.

What about the T/C (dose: 100.0 mg/kg/injection, schedule: Q04DX003 (ip), vehicle: Klucel (hydroxypropylcellulose) (HPC)) of the same compound?
The T/C was 91 % of control.

What about the T/C (dose: 200.0 mg/kg/injection, schedule: Q04DX003 (ip), vehicle: Klucel (hydroxypropylcellulose) (HPC)) of the same compound?
Its T/C is 91 % of control.

With `CN(C)c1nc(N(C)C)nc(N(C)C)n1` as the compound, how does the T/C (dose: 20.0 mg/kg/injection, schedule: Q01DX009 (ip), vehicle: saline with Tween-80) read?
The T/C was 102 % of control.

What about the T/C (dose: 40.0 mg/kg/injection, schedule: Q01DX009 (ip), vehicle: Klucel (hydroxypropylcellulose) (HPC)) of the same compound?
The T/C was 96 % of control.

What about the T/C (dose: 40.0 mg/kg/injection, schedule: Q01DX009 (ip), vehicle: saline with Tween-80) of the same compound?
The T/C was 100 % of control.

How did the T/C (dose: 12.5 mg/kg/injection, schedule: Q04DX003 (ip), vehicle: saline) turn out when `CN1N=C(N)c2cn(C3OC(COP(=O)(O)O)C(O)C3O)c3ncnc1c23` (stereo not drawn) was run?
The T/C was 222 % of control.

And the T/C (dose: 12.5 mg/kg/injection, schedule: Q04DX003 (ip), vehicle: water)?
Its T/C is 471 % of control.

And the T/C (dose: 25.0 mg/kg/injection, schedule: Q04DX003 (ip), vehicle: saline)?
Its T/C is 222 % of control.

And the T/C (dose: 25.0 mg/kg/injection, schedule: Q04DX003 (ip), vehicle: water)?
The T/C was 471 % of control.

What about the T/C (dose: 50.0 mg/kg/injection, schedule: Q04DX003 (ip), vehicle: saline) of the same compound?
Its T/C is 222 % of control and 275 % of control and 369 % of control.

What about the T/C (dose: 50.0 mg/kg/injection, schedule: Q04DX003 (ip), vehicle: water) of the same compound?
Its T/C is 471 % of control.

What about the T/C (dose: 100.0 mg/kg/injection, schedule: Q04DX003 (ip), vehicle: saline) of the same compound?
The T/C was 222 % of control and 275 % of control and 369 % of control.

And the T/C (dose: 100.0 mg/kg/injection, schedule: Q04DX003 (ip), vehicle: water)?
Its T/C is 471 % of control.

And the T/C (dose: 200.0 mg/kg/injection, schedule: Q04DX003 (ip), vehicle: saline)?
The T/C was 275 % of control and 369 % of control.

`Nc1ncn(C2OC(CO)C(O)C2O)c(=O)n1` (stereo not drawn) was tested. Which T/C [1] did it give?
The T/C was 120 % of control.

What about the T/C (dose: 8.0 mg/kg/injection, schedule: Q04DX003 (ip), vehicle: saline) of the same compound?
The T/C was 157 % of control.

And the T/C (dose: 10.0 mg/kg/injection, schedule: Q04DX003 (ip), vehicle: saline)?
Its T/C is 185 % of control.

What about the T/C (dose: 20.0 mg/kg/injection, schedule: Q04DX003 (ip), vehicle: saline) of the same compound?
The T/C was 219 % of control.

What about the T/C (dose: 32.0 mg/kg/injection, schedule: Q04DX003 (ip), vehicle: saline) of the same compound?
Its T/C is 235 % of control.

With `COc1cc(NS(C)(=O)=O)ccc1Nc1c2ccccc2nc2ccccc12` as the compound, how does the T/C (dose: 5.0 mg/kg/injection, schedule: Q04DX003 (ip), vehicle: other) read?
Its T/C is 161 % of control.

What about the T/C (dose: 10.0 mg/kg/injection, schedule: Q04DX003 (ip), vehicle: other) of the same compound?
Its T/C is 205 % of control.

How did the T/C (dose: 0.25 mg/kg/injection, schedule: Q04DX003 (ip), vehicle: saline) turn out when `COC(=O)C[C@](O)(CCCC(C)(C)O)C(=O)O[C@@H]1C(OC)=C[C@]23CCCN2CCc2cc4c(cc2[C@H]13)OCO4` was run?
The T/C was 104 % of control.

What about the T/C (dose: 0.5 mg/kg/injection, schedule: Q04DX003 (ip), vehicle: saline) of the same compound?
The T/C was 93 % of control.

And the T/C (dose: 1.0 mg/kg/injection, schedule: Q04DX003 (ip), vehicle: saline)?
The T/C was 88 % of control.

And the T/C [1]?
Its T/C is 104 % of control.

And the T/C (dose: 4.0 mg/kg/injection, schedule: Q04DX003 (ip), vehicle: saline)?
Its T/C is 102 % of control.

With `CN(C)CNC(=O)c1ccccc1` as the compound, how does the T/C (dose: 20.0 mg/kg/injection, schedule: Q01DX009 (ip), vehicle: water) read?
Its T/C is 102 % of control.

What about the T/C (dose: 40.0 mg/kg/injection, schedule: Q01DX009 (ip), vehicle: water) of the same compound?
Its T/C is 102 % of control.

And the T/C (dose: 80.0 mg/kg/injection, schedule: Q01DX009 (ip), vehicle: water)?
The T/C was 115 % of control.

What about the T/C (dose: 160.0 mg/kg/injection, schedule: Q01DX009 (ip), vehicle: water) of the same compound?
The T/C was 107 % of control.

What does the source list for `Cc1c2oc3c(C)ccc(C(=O)N[C@@H]4C(=O)N[C@H](C(C)C)C(=O)N5CCC[C@H]5C(=O)N(C)CC(=O)N(C)[C@@H](C(C)C)C(=O)O[C@H]4C)c3nc-2c(C(=O)N[C@@H]2C(=O)N[C@H](C(C)C)C(=O)N3CCC[C@H]3C(=O)N(C)CC(=O)N(C)[C@@H](C(C)C)C(=O)O[C@H]2C)c(N)c1=O` (I: [aThr][dV]P[Sar][NMeV] / II: [aThr][dV]P[Sar][NMeV]; ester I:1-I:C, II:1-II:C; linker I:N-II:N via Actinocin(9to1))?
T/C (dose: 0.04 mg/kg/injection, schedule: Q04DX003 (ip), vehicle: saline + alcohol): 115 % of control; T/C (dose: 0.08 mg/kg/injection, schedule: Q04DX003 (ip), vehicle: saline + alcohol): 115 % of control; T/C (dose: 0.3 mg/kg/injection, schedule: Q04DX003 (ip), vehicle: saline + alcohol): 156 % of control; T/C (dose: 0.6 mg/kg/injection, schedule: Q04DX003 (ip), vehicle: saline + alcohol): 189 % of control and 197 % of control; T/C (dose: 37.5 micrograms/kg/injection, schedule: Q04DX003 (ip), vehicle: saline + alcohol): 94 % of control; T/C (dose: 75.0 micrograms/kg/injection, schedule: Q04DX003 (ip), vehicle: saline + alcohol): 103 % of control; T/C (dose: 150.0 micrograms/kg/injection, schedule: Q04DX003 (ip), vehicle: saline + alcohol): 97 % of control; T/C (dose: 300.0 micrograms/kg/injection, schedule: Q04DX003 (ip), vehicle: saline + alcohol): 90 % of control

Which T/C (dose: 1.5 mg/kg/injection, schedule: Q04DX003 (ip), vehicle: saline) does the source give for `CO[C@@]12[C@H](COC(N)=O)C3=C(C(=O)C(C)=C(N)C3=O)N1C[C@@H]1N[C@@H]12` here?
The T/C was 239 % of control.

What about the T/C (dose: 3.0 mg/kg/injection, schedule: Q04DX003 (ip), vehicle: saline) of the same compound?
Its T/C is 335 % of control.

How did the T/C (dose: 5.0 mg/kg/injection, schedule: Q01DX009 (ip), vehicle: saline with Tween-80) turn out when `O=C1NC(=O)C2C3C=CC(C12)C1C2C(=O)NC(=O)C2C31` (stereo not drawn) was run?
The T/C was 110 % of control.

What about the T/C (dose: 10.0 mg/kg/injection, schedule: Q01DX009 (ip), vehicle: saline with Tween-80) of the same compound?
The T/C was 88 % of control and 103 % of control.

And the T/C (dose: 80.0 mg/kg/injection, schedule: Q01DX009 (ip), vehicle: saline with Tween-80)?
Its T/C is 235 % of control.

With `COc1cccc2c1C(=O)c1c(O)c3c(c(O)c1C2=O)C[C@@](O)(C(C)=O)C[C@@H]3OC1CC(N(Cc2ccccc2)Cc2ccccc2)C(O)C(C)O1` (stereo partly drawn) as the compound, how does the T/C (dose: 5.0 mg/kg/injection, schedule: Q04DX003 (ip), vehicle: saline with Tween-80) read?
Its T/C is 96 % of control.

What about the T/C (dose: 10.0 mg/kg/injection, schedule: Q04DX003 (ip), vehicle: saline with Tween-80) of the same compound?
The T/C was 109 % of control.

And the T/C (dose: 20.0 mg/kg/injection, schedule: Q04DX003 (ip), vehicle: saline with Tween-80)?
The T/C was 177 % of control.
